In US9254252B2, “Compounds” (DSM IP ASSETS B.V., priority 2011, dated 2016):

Test: Solubility of resveratrol in trilaureth-4 phosphate, judged by visual observation of transparency
Format: physicochemical
Parameters: key to Solubility: +: partially; from + = partially to +++ = fully soluble; +++: fully soluble
Settings: for Solubility: 40° C.
Experimental: To evaluate solubility of resveratrol in trilaureth-4 phosphate, the following procedure was adopted: lab glass beakers of 250 ml capacity were filled with the phosphate ester surfactant in the range as indicated in Table 1. The final volume was 50 ml. Solubilization occurs almost instantaneously, however the beakers were vigorously shaken for about 1 minute at 6000 rpm. Level of solubility was judged by visual observation of transparency.

threshold level of solubility (in trilaureth-4 phosphate): around 10%
solubility in the emulsifier (in trilaureth-4 phosphate, room temperature): solubilizes well
Solubility (resveratrol 2 wt.-% in trilaureth-4 phosphate 98 wt.-%): +++
Solubility (resveratrol 4 wt.-% in trilaureth-4 phosphate 96 wt.-%): +++
Solubility (resveratrol 6 wt.-% in trilaureth-4 phosphate 94 wt.-%): +++
Solubility (resveratrol 8 wt.-% in trilaureth-4 phosphate 92 wt.-%): +++
Solubility (resveratrol 10 wt.-% in trilaureth-4 phosphate 90 wt.-%): +++
Solubility (resveratrol 12 wt.-% in trilaureth-4 phosphate 88 wt.-%): ++
SMILES: Oc1ccc(/C=C/c2cc(O)cc(O)c2)cc1 [Resveratrol, 5-[(1E)-2-(4-hydroxyphenyl)ethenyl]-1,3-Benzenediol]
